These results are taken from patent publication US12151999B2, “Small molecule compounds having naphthylamine structure and application thereof” (Hangzhou PhecdaMed Co., Ltd., priority 2021, dated 2024).

One data set concerns HEK293Tmtkeima cells. Description: Functional test of mitophagy inducer (mtKeima imaging, with or without CCCP-induced mitochondrial damage). The data set is classed as cell-based, Human. The conditions noted are these: for Ability to selectively induce autophagy in damaged mitochondria (FIG. 2): 5 uM or 10 uM CCCP versus no CCCP treatment; for The ability of selection to induce autophagy in damaged mitochondria: HEK293Tmtkeima cells, 5 uM or 10 uM CCCP to induce mitochondrial damage, number of cells in which damaged mitophagy occurs/number of all cells. As for the experimental part: Group 1: Human embryonic kidney transformed cells HEK293Tmtkeima cells were treated with 0 μM, 1.25 μM, 2.5 μM, 5 μM and 10 μM CCCP respectively, and seeded in a 96-well black ELISA PLATE at 1.5*10^5 cells/ml, 100 μL per well. Compound I-2 was added after 25 hours, and 3 replicates were set. At 37° C., under 5% CO2 incubation conditions, photographs were taken every few hours with biotek cytation 5 for a total of 20 hours, with the bright field as the focusing channel, and 9 images were taken per hole, and the images were processed using the instrument software.
Group 2: Human embryonic kidney transformed cells HEK293Tmtkeima cells were seeded in a 96-well black ELISA PLATE at […], 100 μL per well; compounds I-1˜I-44 and UMI-77 were added after 25 hours, set up 3 replicates; under 37° C., 5% CO2 culture conditions, use biotek every few hours Cytation 5 was used to take photos, a total of 20 hours of shooting. In another group of cells under the same conditions, human embryonic kidney-transformed cells HEK293Tmtkeima cells were seeded in a 96-well black enzyme plate at 1.5*10^5 cells/ml, 100 μl per well; after 24 hours, 5 uM or 10 uM CCCP (Carbonyl cyanide) was first added 3-chlorophenylhydrazone) to induce mitochondrial damage, then add I-1˜I-44, UMI-77 1 hour later, set up 3 repetitions; under 37° C., 5% CO2 culture conditions, pictures were taken every few hours with biotek cytation 5, photographs were taken for 20 hours. Another group of human embryonic kidney transformed cells HEK293Tmtkeima cells was seeded at 1.5*10^5 cells/ml in 96-well black ELISA PLATE at 100 μl per well under the same conditions, 24 hours later 5 uM or 10 uM CCCP (Carbonyl cyanide 3-chlorophenylhydrazone) was first added to induce mitochondrial damage, after 1 hour then add I-1 to I-44, UMI-77 and set up 3 replicates. At 37° C., under 5% CO2 incubation conditions, pictures were taken every few hours with biotek cytation 5, photographs were taken for 20 hours, with the bright field as the focusing channel for both groups, and 9 images were taken per hole, and the images were processed using the instrument software.

The nature of data set [1]: In vitro liver microsome stability test. In kind it is in vitro ADME. Particulars: in vitro mouse or human liver microsomes. How it is done: Ketanserin was selected as the reference compound. The specific method is as follows:
Prepare 0.1MK3PO4 (pH 7.4) buffer and 3×NADPH stock solution (6 mM, 5 mg/mL), and preheat in a 37° C. water bath; configure the test compound and control compound spiking solution: 5 μL compound stock solution ([…]) was added to 95 μL acetonitrile; Configuration of 1.5 μM spiking solution in microsomes (0.75 mg/mL): 1.5 μL of spiking solution and 18.75 μL of liver microparticles solution (20 mg/mL) were added to 479.75 μL of K3PO4 buffer; add 30 μL spiking solution in microsomes to the multi-well plate, and incubated at 37° C. for 5 minutes; add 15 μL NADPH stock solution to each well to start the reaction, and timing; the reaction was terminated by adding 150 μL of acetonitrile solution containing IS at 0 min, 5 min, 15 min, 30 min and 45 min, respectively; shake for 10 min and then centrifuge at 6000 rpm for 15 min; take 80 μL of the supernatant from each well for LC/MS detection and calculate T1/2.
Note: The mouse and human liver microsomes used in the experiments were purchased from Xenotech.
Background: Microsomes from liver hold many membrane-bound enzymes, among them those of drug oxidation.

A short description of data set [2]: In vitro plasma stability test. The data set is classed as in vitro ADME. The conditions noted are these: 37° C. How it is done: Procaine was selected as the reference compound. The specific method is as follows:
Incubated in a water bath at 37° C. for 0, 5, 15 and 30 minutes and 1, 2, 4, 6, 10, 24 and 48 hours. Take 200 μL and add 3 times the volume of chromatography grade acetonitrile to precipitate the protein. Vortex shaking for 5 minutes, centrifuge, take 200 μL of the supernatant, HPLC injection and analysis. The liquid phase conditions are the same as before.

The nature of data set [3]: Mouse pharmacokinetics (PK) test. The conditions noted are these: for AUC(0-inf) / bioavailability / half-life / Cmax / clearance / Vd: ICR, plasma; for bioavailability: read-out: Bioavailability F; for half-life: read-out: Half-life t 1/2 (converted); for Cmax: read-out: Peak blood concentration C max; for clearance: read-out: Eliminate Cl; for Vd: read-out: Steady state apparent volume of distribution Vss. The data set is classed as in vivo, ICR mice. How it is done: (§1) Take experimental mice and apply an appropriate amount of the test compound to them according to the dosage and administration route shown in the figure. Three experimental mice were selected for three parallel experiments for each compound and each administration method. Numbers 101, 102 and 103 were in the same group, 201, 202 and 203 were in one group, and 301, 302 and 303 were in one group.
(§2) At the corresponding time point, take 10 μL of rat plasma sample into a centrifuge tube, add 100 μL of methanol:acetonitrile (1:1, v/v), perform […] for 1 min, centrifuged (14000 rpm) for 5 min, and take 50 μL of the supernatant, mixed with water in equal volumes, mixed uniformly by […] and then analyzed.
(§3) Note: The mice used in the PK experiment are ICR mice of SPF, purchased from Sino-British SIPPR Lab Animal Ltd, Shanghai, China. The rats used in the PK experiments were SD rats of SPF, purchased from Sino-British SIPPR Lab Animal Ltd, Shanghai, China.

Data set [4] is described as follows: Rat pharmacokinetics (PK) test. In kind it is in vivo, SD rats. The conditions noted are these: for bioavailability: read-out: Bioavailability F; for half-life: read-out: Half-life t 1/2 (converted); for Cmax: read-out: Peak blood concentration C max. How it is done:
as §1, §2, §3

Where [5] appears, read: IP intraperitoneal injection, 3 mg/kg.
Setting [6] is: IV intravenous injection, 1 mg/kg.
Setting [7] is: SD, plasma, IP intraperitoneal injection (3 mg/kg).
Where [8] appears, read: SD, plasma, IV intravenous injection (1 mg/kg).
Setting [9] is: SD, plasma, PO oral gavage (10 mg/kg).

Molecules are shown by their SMILES.

Take `O=C(O)C[S+]([O-])c1cc(NS(=O)(=O)c2ccc(Br)cc2)c2ccccc2c1O` (stereo not drawn) [Compound I-1]: the “Ability to selectively induce autophagy in damaged mitochondria (FIG. 2)” value (“Ability to selectively induce autophagy” for short) with HEK293Tmtkeima cells is on record as “more likely to induce autophagy in damaged mitochondria”. For the same compound, the “The ability of selection to induce autophagy in damaged mitochondria” value (from here on “The ability of selection”) in the data set on HEK293Tmtkeima cells was “+++ (strong ability to selectively induce autophagy in damaged mitochondria (number of cells in which damaged mitophagy occurs/number of all cells >0.30))”. The “Liver microsomal stability (elimination half-life T 1/2, FIG. 3)” value (“Liver microsomal stability” below) in data set [1] is recorded as “superior liver microsomal stability”. The “Plasma stability (half-life, FIG. 4)” value in data set [2] was “superior plasma stability”. Further, the “PK properties in the mouse PK experiment (in words)” value in data set [3] is given as “good PK properties”. Besides, the AUC(0-inf) (usually the area under the concentration-time curve extrapolated to infinity) in data set [3] (setting [5]) was 4420 ng·h/mL; in data set [3] (setting [6]) it was 714 ng·h/mL; in data set [3] (PO oral gavage, 10 mg/kg), 3800 ng·h/mL; in data set [4] (setting [7]) it was 18300 ng·h/mL; in data set [4] (setting [8]), 3720 ng·h/mL; in data set [4] (setting [9]) it was 6070 ng·h/mL. The bioavailability in data set [3] (setting [5]) was determined as 247%; in data set [3] (PO oral gavage, 10 mg/kg), 60.4%; in data set [4] (setting [7]) it was 165%; in data set [4] (setting [9]), 16.3%. Moreover, the half-life was 0.79 h in data set [3] (setting [5]); 1.25 h in data set [3] (setting [6]); 1.96 h in data set [3] (PO oral gavage, 10 mg/kg); 3.34 h in data set [4] (setting [7]); 1.93 h in data set [4] (setting [8]); 0.96 h in data set [4] (setting [9]). Moreover, the Cmax was determined as 3740 ng/mL in data set [3] (setting [5]); 832 ng/mL in data set [3] (setting [6]); 1350 ng/mL in data set [3] (PO oral gavage, 10 mg/kg); 5440 ng/mL in data set [4] (setting [7]); 1900 ng/mL in data set [4] (setting [8]); 1550 ng/mL in data set [4] (setting [9]). For the same compound, the clearance amounted to 24.9 mL/min/kg in data set [3] (setting [6]) and 4.91 mL/min/kg in data set [4] (SD, plasma, IV intravenous injection (1 mg/kg), read-out: Eliminate Cl). In addition, the Vd in data set [3] (setting [6]) was 2.3 L/kg; in data set [4] (SD, plasma, IV intravenous injection (1 mg/kg), read-out: Steady state apparent volume of distribution V ss), 0.63 L/kg. For the same compound, the “PK properties in the rat PK experiment (in words)” value in data set [4] was “good PK properties”.
Regarding `CN(c1cc([S+]([O-])CC(=O)O)c(O)c2ccccc12)S(=O)(=O)c1ccc(Br)cc1` (stereo not drawn) [Compound I-2], in the data set on HEK293Tmtkeima cells, the “Ability to selectively induce autophagy” value was “more likely to induce autophagy in damaged mitochondria” and the “The ability of selection” value is “++ (moderate ability to selectively induce autophagy in damaged mitochondria (number of cells in which damaged mitophagy occurs/number of all cells in the range of 0.2 to 0.3))”. Moreover, the “Induction of mitophagy in cells with undamaged mitochondria (FIG. 1)” value in the data set with HEK293Tmtkeima cells (cells treated with 0 μM CCCP) is given as “unable to induce autophagy in non-damaged mitochondria”. The “Induction of mitophagy in cells with mitochondrial damage (FIG. 1)” value in the data set with HEK293Tmtkeima cells (cells with CCCP (10 μM) versus without CCCP) is recorded as “selectively induces autophagy in damaged mitochondria”. In addition, in data set [1], the “Liver microsomal stability” value was “superior liver microsomal stability”. Further, in data set [2], the “Plasma stability (half-life, FIG. 4)” value is “superior plasma stability”. Also, in data set [3], the “PK properties in the mouse PK experiment (in words)” value is “good PK properties”. In addition, in data set [3] (setting [6]), the AUC(0-inf) is 429 ng·h/mL, the clearance was determined as 39.3 mL/min/kg, the half-life was 0.98 h and the Cmax amounted to 947 ng/mL. In addition, the Vd in data set [3] (setting [6]) amounted to 1.39 L/kg. In data set [3] (PO oral gavage, 10 mg/kg), the AUC(0-inf) worked out at 1050 ng·h/mL, the bioavailability was determined as 24.1%, the half-life is 1.37 h and the Cmax turned out to be 495 ng/mL.
Take `O=C(O)C[S+]([O-])c1cc(NC(=O)c2cccc(Br)c2)c2ccccc2c1O` (stereo not drawn) [Compound I-35-1]: the “The ability of selection” value with HEK293Tmtkeima cells is reported as “+ (weak ability to selectively induce autophagy in damaged mitochondria (number of cells in which damaged mitophagy occurs/number of all cells in the range of 0.1 to 0.2))”.
Same read-out and setting: for `Cn1cc(S(=O)(=O)Nc2cc([S+]([O-])CC(=O)CO)c(O)c3ccccc23)cn1` (stereo not drawn) [Compound I-36] the value was “++ (moderate ability to selectively induce autophagy in damaged mitochondria (number of cells in which damaged mitophagy occurs/number of all cells in the range of 0.2 to 0.3))”; for `Cc1noc(C)c1S(=O)(=O)Nc1cc([S+]([O-])CC(=O)O)c(O)c2ccccc12` (stereo not drawn) [Compound I-37], “++ (moderate ability to selectively induce autophagy in damaged mitochondria (number of cells in which damaged mitophagy occurs/number of all cells in the range of 0.2 to 0.3))”.
With `O=C(O)CS(=O)(=O)c1cc(NS(=O)(=O)c2ccc(Br)cc2)c2ccccc2c1O` [Compound I-42], the “The ability of selection” value with HEK293Tmtkeima cells is listed as “+ (weak ability to selectively induce autophagy in damaged mitochondria (number of cells in which damaged mitophagy occurs/number of all cells in the range of 0.1 to 0.2))”.
Consider `O=C(O)CSc1cc(NS(=O)(=O)c2ccc(Br)cc2)c2ccccc2c1O` [UMI-77, reference compound], for which the “Ability to selectively induce autophagy” value with HEK293Tmtkeima cells is on record as “unable to selectively induce autophagy in damaged mitochondria”. In addition, the “Liver microsomal stability” value in data set [1] was “unstable in the liver microsomal environment and will be rapidly eliminated”. Moreover, the “Plasma stability (half-life, FIG. 4)” value in data set [2] was “unstable in the plasma environment and will be rapidly eliminated”. Further, in data set [3], the “PK properties in the mouse PK experiment (in words)” value is on record as “rapidly cleared”. Besides, in data set [3] (setting [6]), the AUC(0-inf) turned out to be 140 ng·h/mL, the clearance amounted to 131 mL/min/kg, the Cmax was 314 ng/mL and the Vd is 18.4 L/kg. In data set [3] (PO oral gavage, 10 mg/kg), the AUC(0-inf) is 162 ng·h/mL, the bioavailability is 8.64% and the Cmax was determined as 102 ng/mL.
